Melting point data for 61 compounds are collected here from a melting point compilation (Tetko et al.; mined from patent text by program, amines drawn as free bases though some values may be those of a salt).

`CCOC(=O)CC(=O)c1cc(F)c(S(=O)c2ccccc2)nc1Nc1ccc(F)cc1F` (stereo unspecified) yielded a melting point of 105 to 106 °C. Take `O=[N+]([O-])C=Cc1cccc2[nH]ccc12`: the melting point was 152 to 154 °C. In turn, `CC1(C)C2CC[C@]1(C)C(=O)C(C(=O)Nc1ccc(C(F)(F)F)cc1)C2=O` (stereo partly specified) showed a melting point of 78 to 81 °C. `Cc1nc(N)c2nc(CO)n(NC3CCCCC3)c2c1C` registered a melting point of more than 250 °C. As for `COc1ccc(-n2nnc(-c3ccc(Cl)c(Cl)c3)c2N)cc1`, the figure is 190 to 191 °C; as for `Cc1cc2cc(CN3CCCC3)cnc2cc1NC(=O)c1ccc(-c2ccccc2)c(F)c1`, 167 to 170 °C. As for `COCC(=O)N(c1c(C)cccc1C)C1CCOC1=O` (stereo unspecified), the melting point is 118 to 120 °C. `C1=C(c2ccc3c(c2)OCO3)CCC2(C1)OCCO2` had a melting point of 75 to 76 °C. With `CCC(C)C(NC(=O)OC)C(=O)NC(Cc1ccccc1)C(O)CN(Cc1ccc(-c2cncs2)cc1)NC(=O)C(NC(=O)OC)C(C)C` (stereo unspecified), the melting point lay in the range of 202 to 204 °C.

`CC1COCC(C)N1C(=O)N1Cc2c(-c3noc(C4CC4)n3)ncn2-c2ccc(F)cc21` (stereo unspecified) had a melting point of 143 to 146 °C. As for `O=c1cc(-c2ccccc2)oc2ccc(OCCCCCCCCN3CCC(O)CC3)cc12`, the melting point was 57 to 58 °C.

`Cc1cc(Cc2cc(C)c(N=C=O)c(C)c2)cc(C)c1N=C=O` returned a melting point of 130 to 131 °C.

In turn, `CCCCn1c(C)c(C)cc(N)c1=O` came in with a melting point of 94 to 97 °C. Consider `O=C(O)CCC(=O)c1ccc2c(c1)oc1ccccc12`, for which the melting point was in the range of 208 to 210 °C. `N#CC(C(=O)C(F)(F)F)c1cc(Cl)cc(Cl)c1Cl` (stereo unspecified) came in with a melting point of 160 to 163 °C. With `CS(=O)(=O)c1ccc(-c2cnn(CC3CC3)c(=O)c2-c2ccc(F)cc2)cc1`, the melting point was in the range of 118 to 121 °C. `COC(=O)c1cncc(OCc2ccc(OCc3nc(-c4ccccc4)oc3C)cc2)c1` registered a melting point of 138 to 139 °C. Compound `CN(CCNC(=O)c1ccccc1)C(=O)c1ccccc1` showed a melting point of 121 °C.

On to `CCNc1cccnc1N1CCN(C(=O)c2ccc(C(=O)O)cn2)CC1`, for which the melting point is 155 to 157 °C.

`CC(C)(C)c1c(Cl)nc(OCc2ccccc2)nc1OCc1ccccc1` came in with a melting point of 96 °C.

As for `CCCCCCCCOc1ccc(C(=O)c2ccccc2)c(O)c1Cc1cc(C)cc(-n2nc3ccccc3n2)c1O`, the melting point was in the range of 124 to 126 °C.

Compound `O=S(=O)(c1ccccc1)c1ncc(Br)cn1` displayed a melting point of 103 °C. As for `CC(C)(C)OC(=O)Nc1c(C#CBr)c(C#N)nn1-c1c(Cl)cc(C(F)(F)F)cc1Cl`, the figure is 168 to 170 °C.

Turning to `Cc1[nH]c(=S)[nH]c(=O)c1CCc1ccccc1`, the melting point lay within 210 to 214 °C. `Cc1nc2ncc(C(=O)NCc3ccc(Cl)cc3)c(O)c2cc1I` had a melting point of 276 to 277 °C. In turn, `COC(=O)CCC(C)C1CC=C2C3=C(CCC21C)C1(C)CCC(O)C(C)(C)C1CC3` (stereo unspecified) had a melting point of 156 to 157 °C. The result for `COc1cc2nc(-c3cc(C)c(OCCO)c(C)c3)[nH]c(=O)c2cc1OC` reads more than 300 °C; that for `COC(=O)c1cc(C(=O)OC)n(-c2ccc([N+](=O)[O-])cc2C(=O)c2ccccc2)n1`, 150 to 152 °C. For `CC(C)c1ccc(-c2nnc(-c3cccc(C(=O)O)c3)o2)cc1`, the melting point was 202 to 204 °C. For the compound `COc1nc(C)cnc1NS(=O)(=O)c1cccnc1-c1ccc(N2CCOCC2)cc1`, the melting point lay in the range of 197 to 198 °C.

`CC(C)(C)OC(=O)N1CCN2C(=O)OC(c3ccccc3)(c3ccccc3)C2C1` (stereo unspecified) had a melting point of 151 to 152 °C. The compound `CN(C)C(=O)/C=C/c1cnc2c(NC(=O)c3c(Cl)cccc3Cl)cccc2c1` had a melting point of 241 to 242 °C.

With `O=c1[nH]c2c(n(O)c1=O)C1=C(CCC(n3ccc(CN4CCN(Cc5ccccc5)CC4)c3)=C1)CC2`, the melting point was more than 200 °C. The result for `CCOC(=O)N1CCC(NC2(c3ccccc3Cl)C(=O)Nc3ccc(Cl)cc32)CC1` (stereo unspecified) reads 204 °C. In turn, `COC(=O)N1CCC(Nc2nc3ccccc3n2Cc2ccc(F)cc2)C(C)C1` (stereo unspecified) registered a melting point of 172 °C.

On to `CNc1ncnc2c1c(-c1ccc([N+](=O)[O-])o1)nn2C`, for which the melting point amounted to 280 °C. The compound `O=C(O)C1c2ccccc2COc2ccc(F)cc21` (stereo unspecified) displayed a melting point of 176 °C.

The compound `Cc1c(CO)oc2c(Br)cccc12` came in with a melting point of 103 °C. As for `COc1cc2cc(CO)c(CO)c(-c3ccnc(Nc4ccccc4CCCO)c3)c2cc1OC`, the figure is 156 to 158 °C; as for `Clc1ccc(Oc2cncc3sc(C4=NCCN4)cc23)cc1`, 154 to 155 °C. For `CC(C)c1ccc([N+](=O)[O-])c(C(C)C)c1NC(=O)CN1CCN(CCSc2nc3cccc([N+](=O)[O-])c3o2)CC1`, the melting point fell in the range of 70 to 72 °C.

In turn, `CN1CCN(c2cc(Sc3ccccc3)nc(-c3ccccc3)n2)CC1` had a melting point of 125 to 128 °C. Compound `O=P(O)(O)COc1c(Br)cc(-c2c3ccccc3c(Br)c3sc4ccccc4c23)cc1Br` showed a melting point of 334 to 335 °C. In turn, `Cn1c(C(F)F)nn(-c2cc(OCC(N)=O)c(Cl)cc2Cl)c1=O` returned a melting point of 190 to 194 °C.

Take `Cc1cc(SCC#Cc2ccc(Cl)cc2)ccc1OCC(=O)O`: the melting point was in the range of 106 to 108 °C. The result for `COc1cc(OC)nc(NC(=O)NS(=O)(=O)c2ccccc2-c2cnoc2)n1` reads 175 to 178 °C; that for `COc1ccc2ncc(F)cc2c1`, 51 to 53 °C; that for `Cc1c(Nc2c(I)cncc2C#N)ccc2[nH]ccc12`, 192 to 194 °C. As for `COc1ccc(-c2cc(=S)n(Cc3cc(OC)c(OC)c(OC)c3)nc2-c2ccc(OC)cc2)cc1`, the figure is 142 to 146 °C; as for `NNC(=O)c1nn(Cc2ccc(Cl)cc2Cl)c2ccccc12`, 161 to 162 °C; as for `CC12CCC3c4ccc(OCc5ccccc5)cc4CCC3C1CCC2O` (stereo unspecified), 97 to 100 °C. For the compound `Cc1cccc(N2C(=S)SC(C)C2(C)O)n1` (stereo unspecified), the melting point came to 129 °C. The result for `Cn1nc(C#N)c(Nc2ccc(F)cc2[N+](=O)[O-])n1` reads 159 to 160 °C. The result for `Cc1nc(N)nc(CCCCCCCCCCO)c1O` reads 103 to 104 °C; that for `CCOC(=O)c1c(C(C)(C)O)nc(CO)n1Cc1ccc(-c2ccccc2-c2nnnn2C(c2ccccc2)(c2ccccc2)c2ccccc2)cc1`, 151 to 152 °C. The compound `COc1cc2ncnc(N3CCc4cc(C)ccc43)c2cc1OC` gave a melting point of 180 to 181 °C. `CC(Cc1c[nH]c2ccccc12)(NC(=O)OC1C2CC3CC(C2)CC1C3)C(=O)NCC(NC(=O)CSc1ncc[nH]1)c1ccccc1` (stereo unspecified) came in with a melting point of 112 to 122 °C. With `Cc1ccc2c(c1)N(CC(=O)c1cccs1)C(=O)C(NC(=O)Nc1cccc(C(=O)O)c1)CN2C(=O)c1cccs1` (stereo unspecified), the melting point was more than 290 °C. As for `CC(=O)N1CCC(=O)C(C(c2ccc(Cl)cc2)c2ccc(Cl)cc2)C1` (stereo unspecified), the figure is 169 to 171 °C; as for `COC(=O)C(c1ccccc1)n1cncc1C=O` (stereo unspecified), 106 to 109 °C; as for `Cc1cc(Br)cc(C(=O)O)c1N`, 245 °C.

What is called melting point is the temperature, or range, at which the solid turns liquid.
